Data reported in patent US5405598A, “Sensitizing agents for use in boron neutron capture therapy” (priority 1992, dated 1995).

Tests used:
[1] = tested on: Hepatitis B virus (HBV); details: racemic BCH-189; FTC; cited from earlier work
[2] = tested on: human immunodeficiency viruses (HIV); details: racemic BCH-189; FTC; cited from earlier work
[3] = tested on: HIV-1 (strain LAV); assay: Anti-HIV-1 activity in human PBM cells; type: cell-based; details: On day 6, in human PBM cells, without neutrons
Description: Thus, these compounds have antiviral activity in the absence of neutrons.
(§1) Biological methods are described in Schinazi et al, Antimicrob. Agents Chemother., vol. 34, pp. 1061-1067, (1990).

[4] = tested on: CEM; assay: Cytotoxicity in CEM cells; type: cell-based; details: On day 6; read-out: CEM IC50 (cytotoxicity)
Description: as §1

[5] = tested on: PBM; assay: Cytotoxicity in PBM cells; type: cell-based, human; details: On day 6; read-out: PBM IC50 (cytotoxicity)
Description: as §1

[6] = tested on: Vero; assay: Cytotoxicity in Vero cells; type: cell-based; details: On day 3; read-out: Vero IC50 (cytotoxicity)
Description: as §1

[7] = tested on: hamster V-79 cells; details: when irradiated with low energy neutrons; cited from earlier work
[8] = mice, radiolabeled; cited from earlier work
[9] = mice; cited from earlier work
[10] = tested on: malignant cells; details: under both euoxic and hypoxic conditions; cited from earlier work

Molecule: Nc1ccn([C@H]2CS[C@@H](CO)O2)c(=O)n1 (racemic) [BCH-189, 2', 3'-dideoxy-3'-thiacytidine]
- viability as anti-HBV agent [1]: demonstrated
- viability as anti-HIV agent [2]: demonstrated

Molecule: 5-Carboranyl-2',3'-dideoxy-3'-thiauridine
- EC50 [3]: 12.1 µM
- CC50 [4]: 37.9 µM
- CC50 [5]: > 100 µM
- CC50 [6]: 34.2 µM

Molecule: 5'-O-Butyryl-5-carboranyl-3'-thia-2',3'-dideoxyuridine
- EC50 [3]: 6.4 µM

Molecule: Nc1nc(=O)n([C@H]2CS[C@@H](CO)O2)cc1F [FTC, 2', 3'-dideoxy-5-fluoro-3'-thiacytidine]
- viability as anti-HBV agent [1]: demonstrated
- viability as anti-HIV agent [2]: demonstrated

Molecule: O=c1[nH]c(=O)n([C@H]2C[C@H](O)[C@@H](CO)O2)cc1B(O)O [DBDU, 5-dihydroxyboryl-2'-deoxyuridine]
- destruction of hamster V-79 cells [7]: destroy hamster V-79 cells

Molecule: Cc1cc(OP(=O)(O)O)c2cc(I)ccc2c1OP(=O)(O)O [6-I-MNDP, 6-iodo-2-methyl-1,4-naphthoquinol bis(diammonium phosphate)]
- uptake in tumor tissues [8]: high uptake
- uptake into critical radiosensitive tissues, such as bone-marrow, colon, and lung [8]: low uptake
- metabolic stability of the halogen-carbon bond [9]: metabolically stable
- uptake into malignant cells relative to normal cells [10]: 15-20 fold
